Series [1] in a line: Bioavailability (BA) test. The class given is in vivo. As to conditions: plasma; mice or SD rats, oral vs intravenous AUC. The procedure: (1) Animals: Mice or SD rats were used
(2) Breeding conditions: Mice or SD rats were allowed to freely take solid food and sterilized tap water.
(3) Dose and grouping: orally or intravenously administered at a predetermined dose; grouping was as follows (Dose depends one the compound) • Oral administration: 0.3 to 30 mg/kg (n=2 to 3) • Intravenous administration: 0.5 to 10 mg/kg (n=2 to 3)
(4) Preparation of dosing solution: for oral administration, in a solution or a suspension state: for intravenous administration, in a solubilized state
(5) Administration method: in oral administration, forcedly administer into ventriculus with oral probe; in intravenous administration, administer from caudal vein with a needle-equipped syringe
(6) Evaluation items: blood was collected over time, and the plasma concentration of drug was measured by LC/MS/MS
(7) Statistical analysis: regarding the transition of the plasma concentration or the present compound, the area under the plasma concentration-time curve (AUC) was calculated by non-linear least squares program WinNonlin (Registered trade name), and the bioavailability (BA) was calculated the AUCs of the oral administration group and intravenous administration group

A further series deals with CYP2D6 (Homo sapiens (Human), UniProt P10635). Nature of the series: CYP inhibition test, pooled human hepatic microsome, dextromethorphan O-demethylation. In kind it is in vitro ADME. The settings on record: substrate dextromethorphan. On the procedure: (§1) Using commercially available pooled human hepatic microsome, and employlng, as markers, 7-ethoxyresorufin O-deethylation (CYP1A2), tolbutamide methyl-hydroxylation (CYP2C9), mephenyloin 4′-hydroxylation (CYP2C19), dextromethorphan O-demethylation (CYP2D6), and terfenedine hydroxylation as typical substrate metabolism reactions of human main five CYP enzyme forms (CYP1A2, 2C9, 2C19, 2D6, 3A4), an inhibitory degree of each metabolite production amount by a test compound was assessed.
CYP2D6, sequence (P10635 whole entry): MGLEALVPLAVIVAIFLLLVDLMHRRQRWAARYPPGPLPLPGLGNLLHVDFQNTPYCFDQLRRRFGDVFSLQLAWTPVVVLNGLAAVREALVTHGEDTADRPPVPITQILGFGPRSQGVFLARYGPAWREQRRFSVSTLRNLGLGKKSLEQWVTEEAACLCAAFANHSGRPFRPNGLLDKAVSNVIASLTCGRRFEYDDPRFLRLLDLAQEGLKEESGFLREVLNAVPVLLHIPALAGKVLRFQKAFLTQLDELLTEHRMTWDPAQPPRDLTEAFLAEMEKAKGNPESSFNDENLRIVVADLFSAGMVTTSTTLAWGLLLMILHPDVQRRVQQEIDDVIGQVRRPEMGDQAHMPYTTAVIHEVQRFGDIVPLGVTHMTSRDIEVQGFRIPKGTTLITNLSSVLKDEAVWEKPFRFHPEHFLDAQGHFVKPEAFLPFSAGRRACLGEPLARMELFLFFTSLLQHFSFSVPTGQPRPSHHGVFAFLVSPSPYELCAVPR
(§2) The reaction conditions were as follows: substrate, 0.5 μmol/L ethoxyresorufin (CYP1A2), 100 μmol/L tolbutamide (CYP2C9), 50 μmol/L S-mephenitoin (CYP2C19), 5 μmol/L dextromethorphan (CYP2D6), 1 μmol/L terfenedine (CYP3A4) reaction time, 15 minutes; reaction temperature, 37° C; enzyme, pooled human hepatic microsome 0.2 mg protein/mL; test drug concentration, 1.0, 5.0, 10, 20 μmol/L (four points).
(§3) Each five kinds of substrates, human hepatic microsome, or a test drug in 50 mmol/L Hepes buffer as a reaction solution was added to a 96-well plate at the composition as described above, NADPH, as a cofactor was added to initiate metabolism reactions as markers and, after the incubation at 37° C. for 15 minutes, a methanol/acetonitrile=1/1 (v/v) solution was added to stop the reaction. After the centrifugation at 3000 rpm for 15 minutes, resorufin (CYP1A2 metabolite) in the supernatant was quantified by a fluorescent multilabel counter and tributamide hydroxide (CYP2CP metabolite), mephenyloin 4′ hydroxide (CYP2C19 metabolite), […] (CYP2D6 metabolite), and terfenadine alcohol (CYP3A4 metabolite) were quantified by LC/MS/MS.

In another series the target is human P2X3 receptor (Homo sapiens (Human), UniProt P56373). Nature of the series: Evaluation of human P2X3 receptor inhibitory activity (Fluo-3 calcium fluorescence, FDSS 3000, ATP stimulation).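 Also: stimulus was 50 nM ATP with fluorescence followed for 3 min, and the response per well was peak post-ATP fluorescence divided by the reading at measurement start.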 In kind it is cell-based.
human P2X3 receptor, sequence (P56373 whole entry): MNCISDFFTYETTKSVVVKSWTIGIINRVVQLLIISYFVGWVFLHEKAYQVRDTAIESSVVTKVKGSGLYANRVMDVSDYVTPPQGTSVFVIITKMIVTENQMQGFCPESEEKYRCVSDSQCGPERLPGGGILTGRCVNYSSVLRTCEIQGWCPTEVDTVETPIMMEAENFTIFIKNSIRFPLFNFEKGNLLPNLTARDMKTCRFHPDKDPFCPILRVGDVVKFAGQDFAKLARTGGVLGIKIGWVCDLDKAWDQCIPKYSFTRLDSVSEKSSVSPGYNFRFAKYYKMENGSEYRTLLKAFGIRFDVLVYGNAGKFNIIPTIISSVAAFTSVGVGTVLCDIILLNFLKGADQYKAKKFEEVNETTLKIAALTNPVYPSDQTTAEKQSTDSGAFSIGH
The next series concerns the target CYP1A2 (Homo sapiens (Human), UniProt P05177). Nature of the series: CYP inhibition test, pooled human hepatic microsome, 7-ethoxyresorufin O-deethylation. The class given is in vitro ADME. As to conditions: substrate ethoxyresorufin. On the procedure:
as §1, §2, §3

In another series the target is rat P2X3 receptor (Rattus norvegicus (Rat), UniProt P49654). Nature of the series: Evaluation of rat P2X3 receptor inhibitory activity (Fluo-3 calcium fluorescence, FDSS 3000, ATP stimulation). In kind it is cell-based. The procedure: Rat P2X3 receptor gene (GenBank accession number NM_031075) was expressed in C6BU-1 cell. The cells stably expressing rat P2X3 were seeded in a 96-well microtiter plate at a concentration of 8000 cells/well and cultured in the medium (8.3% fetal bovine serum. 8.3% horse serum, 1% antibiotic and antifungal in DMEM) for one day at 37° C. under 5% carbon dioxide atmosphere. In transiently expressing system, the C6BU-1 cells were seeded in a […] at a concentration of 2500 cells/well and cultured in the medium for one day at 37° C. under 5% carbon dioxide atmosphere. The plasmid was transfected into the cells using transfection reagent FuGENE6 (Roche). The transfected cells were cultured in the medium for one day at 37° C. under 5% carbon dioxide atmosphere. […] Measurement of fluorescence intensity by FDSS 3000 was started, and 40 μL of DMSO solutions containing different concentrations of the test compound as prepared by dilution with dilution buffer (20 mM HEPES, 137 mM NaCl, 2.7 mM KCl, 0.9 mM MgCl2, 5.0 mM CaCl2, 5.6 mM D-glucose, 2.5 mM probenecid, 0.1% Pluronic F-127, pH 7.5) were dispensed to each well through the built-in automatic dispenser. Five minutes after, […] ATP solution (50 μL) prepared by dilution with the dilution buffer was dispensed through the built-in automatic dispenser, and the measurement of fluorescence intensity was continued for 3 min. For each well, the specific maximum fluorescence intensity was calculated as the ratio of the maximum fluorescence intensity after addition of the ATP solution to the fluorescence intensity at the starting of the measurement. […] FDSS software (Hamamatsu Photonics K.K.) was used for calculation of the specific maximum fluorescence intensity. IC50 was calculated using Microsoft Excel (Microsoft Corporation) and XLfit (idbs Ltd.).
rat P2X3 receptor, sequence (P49654 whole entry): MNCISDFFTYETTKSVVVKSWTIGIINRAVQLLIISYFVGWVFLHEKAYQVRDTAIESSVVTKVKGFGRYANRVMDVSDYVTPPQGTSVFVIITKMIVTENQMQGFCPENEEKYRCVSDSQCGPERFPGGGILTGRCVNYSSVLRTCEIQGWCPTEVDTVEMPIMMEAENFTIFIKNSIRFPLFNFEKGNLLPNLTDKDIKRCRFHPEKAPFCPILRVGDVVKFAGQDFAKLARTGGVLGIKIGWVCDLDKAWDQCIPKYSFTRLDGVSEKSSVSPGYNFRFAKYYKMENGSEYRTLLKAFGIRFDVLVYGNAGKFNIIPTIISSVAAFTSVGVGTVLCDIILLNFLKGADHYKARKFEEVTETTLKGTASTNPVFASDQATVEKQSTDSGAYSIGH

For a further series, the system named is human liver microsomes. Nature of the series: Metabolism stability test with pooled human hepatic microsomes. The settings on record: compound concentration 0.5 μmol/L, 30 minutes, NADPH. In kind it is in vitro ADME. The procedure:
Using commercially available pooled human hepatic microsomes, a test compound is reacted for a constant time, a remaining rate is calculated by comparing a reacted sample and an unreacted sample, thereby, a degree of metabolism in liver is assessed.
A reaction was performed (oxidative reaction) at 37° C. for 0 minute or 30 minutes in the presence of 1 mmol/L NADPH in 0.2 mL of a buffer (50 mmol/L tris-HCl pH 7.4, 150 mmol/L potassium chloride, 10 mmol/L magnesium chloride) containing 0.5 mg protein/mL of human liver microsomes. After the reaction, 50 μL of the reaction solution was added to 100 μL of a methanol/acetonitrile=1/1 (v/v), mixed and centrifuged at 3000 rpm for 15 minutes. The test compound in the supernatant was quantified by LC/MS/MS, and a remaining amount of the test compound after the reaction was calculated, letting a compound amount at 0 minute reaction time to be 100%.

The mark [2] stands for this setting: human P2X3 receptor, Test Example 1.

Where only a bound is given, the exact number is not on record here.

CYP1A2, sequence (P05177 whole entry): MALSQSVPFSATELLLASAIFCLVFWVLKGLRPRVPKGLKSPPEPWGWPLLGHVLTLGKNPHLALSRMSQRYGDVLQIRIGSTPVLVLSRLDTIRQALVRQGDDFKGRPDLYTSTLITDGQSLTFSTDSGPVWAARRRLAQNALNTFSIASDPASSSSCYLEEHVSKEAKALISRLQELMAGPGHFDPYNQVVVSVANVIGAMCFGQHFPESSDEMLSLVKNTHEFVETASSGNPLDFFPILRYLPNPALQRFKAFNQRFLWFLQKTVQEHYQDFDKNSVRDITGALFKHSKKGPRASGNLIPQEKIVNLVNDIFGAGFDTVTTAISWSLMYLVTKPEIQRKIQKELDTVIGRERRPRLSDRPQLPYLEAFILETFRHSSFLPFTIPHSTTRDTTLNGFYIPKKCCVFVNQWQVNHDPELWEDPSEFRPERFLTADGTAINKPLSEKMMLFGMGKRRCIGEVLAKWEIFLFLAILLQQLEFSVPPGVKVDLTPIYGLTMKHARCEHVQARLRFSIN

Compound `C[C@@H](Cn1c(=O)[nH]/c(=N\c2ccc(OCC3CC3)cc2)n(Cc2ccc(Cl)cc2)c1=O)C(=O)O` [Compound I-0837] gave a bioavailability in series [1] of 46%. The IC50 was more than 20000 nM at CYP2D6, 17 nM at human P2X3 receptor (setting [2]), more than 20000 nM against CYP1A2 and 19 nM at rat P2X3 receptor. The compound also registered a remaining rate in the series on human liver microsomes of 99%.

In the case of `CCn1c(=O)[nH]/c(=N\c2ccc(Oc3ccnc(C(=O)O)c3)cc2)n(Cc2ccc(Cl)cc2)c1=O` [Compound I-1788], the bioavailability in series [1] came out at 31%. In addition, the concentration for half-maximal inhibition (IC50) was more than 20000 nM at CYP2D6; 5 nM at human P2X3 receptor (C6BU-1 cells stably expressing human P2X3 receptor, Fluo-3 fluorescence, FDSS 3000); more than 20000 nM at CYP1A2; 5 nM at rat P2X3 receptor. The remaining rate in the series with human liver microsomes was more than 99.9%.

As to `O=c1[nH]/c(=N\c2ccc(Oc3ccon3)cc2)n(Cc2ccc(Cl)cc2)c(=O)n1CC(CO)CO` [Compound I-2291], in series [1], the bioavailability is 83%. Besides, the IC50 is more than 20000 nM against CYP2D6, 4 nM on human P2X3 receptor (setting [2]), more than 20000 nM on CYP1A2 and 3 nM on rat P2X3 receptor. Moreover, the remaining rate in the series on human liver microsomes stood at 94%.

The term bioavailability denotes the share of a dose that reaches the circulation, judged against a reference dose that is usually intravenous. Higher therefore signals good availability. Usually IC50 stands for the point on the concentration scale where inhibition reaches its midpoint.

For the origin of these results see patent US9718790B2, “Triazine derivative and pharmaceutical composition having an analgesic activity comprising the same” (SHIONOGI & CO., LTD., priority 2010, dated 2017).
